Experimental findings from patent US20240115557A1, “INHIBITORS OF RNA-GUIDED NUCLEASES AND USES THEREOF” (The Brigham and Women's Hospital, Inc., priority 2022, published 2024) are described below.

The experiment has as its target T1, SaCas9 (Staphylococcus aureus, UniProt J7RUA5).
T1 sequence (J7RUA5 1-1053): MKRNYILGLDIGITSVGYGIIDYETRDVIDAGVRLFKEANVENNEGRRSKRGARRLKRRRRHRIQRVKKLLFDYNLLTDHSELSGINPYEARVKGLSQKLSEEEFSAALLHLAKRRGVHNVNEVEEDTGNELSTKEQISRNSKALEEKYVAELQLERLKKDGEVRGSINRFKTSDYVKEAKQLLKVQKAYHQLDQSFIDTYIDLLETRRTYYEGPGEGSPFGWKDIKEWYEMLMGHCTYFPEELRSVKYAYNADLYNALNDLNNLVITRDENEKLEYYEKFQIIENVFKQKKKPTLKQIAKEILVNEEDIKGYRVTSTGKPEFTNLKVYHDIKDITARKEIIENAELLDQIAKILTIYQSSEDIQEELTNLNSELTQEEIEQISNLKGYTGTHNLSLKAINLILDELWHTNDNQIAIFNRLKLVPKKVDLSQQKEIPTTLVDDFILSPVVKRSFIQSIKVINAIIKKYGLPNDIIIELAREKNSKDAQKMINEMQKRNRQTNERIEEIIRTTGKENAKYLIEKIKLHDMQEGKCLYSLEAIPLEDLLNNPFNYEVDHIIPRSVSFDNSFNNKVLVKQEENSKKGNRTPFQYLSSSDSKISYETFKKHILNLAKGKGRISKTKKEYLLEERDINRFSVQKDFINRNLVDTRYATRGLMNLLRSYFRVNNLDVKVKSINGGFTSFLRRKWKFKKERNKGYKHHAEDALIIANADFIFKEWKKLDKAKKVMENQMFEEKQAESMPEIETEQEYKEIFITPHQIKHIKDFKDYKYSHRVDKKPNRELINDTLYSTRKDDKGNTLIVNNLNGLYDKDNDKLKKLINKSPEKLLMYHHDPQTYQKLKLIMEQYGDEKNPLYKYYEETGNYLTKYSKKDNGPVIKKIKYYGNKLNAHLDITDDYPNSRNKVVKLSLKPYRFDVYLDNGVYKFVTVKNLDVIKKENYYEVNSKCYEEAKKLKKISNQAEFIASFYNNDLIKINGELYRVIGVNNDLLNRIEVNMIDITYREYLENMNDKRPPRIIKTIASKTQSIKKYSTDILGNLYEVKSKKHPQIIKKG
As to the kind of experiment: Strand displacement assay, SaCas9 primary screen. The class given is biochemical. The following applies: for Auto Zscore Rep 1 / Auto Zscore Rep 2 / Normalized Zscore Rep 1 / Normalized Zscore Rep 2: SaCas9 primary screen; for Auto Zscore Rep 1 / Normalized Zscore Rep 1: replicate 1; for Auto Zscore Rep 2 / Normalized Zscore Rep 2: replicate 2; for Normalized Zscore Rep 1 / Normalized Zscore Rep 2: weaker potential hits; for 3 sigma Hit: flag 1 = hit at 3 sigma; for 5 sigma Hit: flag 1 = hit at 5 sigma. The method in brief:
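Cas9 RNP (1:1.2 protein:gRNA) pre-formed in 20 mM Tris-HCl pH 7.5, 100 mM KCl, 5 mM MgCl2, used at 10 nM (2× stock) with Alexa-Fluor 647 substrate/quencher at 1 nM/5 nM (2× stock). Reaction ran 2.5 h at 37°C; strand displacement read as fluorescence. Hits called by Z-score: 3–5σ weak, >5σ strong.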

SMILES strings stand for the structures.

`CS(=O)(=O)Nc1cnc(N2CCC(CCN3CCOCC3)CC2)c(C(=O)O)c1` [Compound F293-0898]: the “Auto Zscore Rep 1” value is listed as 0.3628, the “Auto Zscore Rep 2” value was 0.2374, the “Normalized Zscore Rep 1” value is recorded as 0.3858 and the “Normalized Zscore Rep 2” value was found to be 0.277. The “3 sigma Hit” value is 1 and the “5 sigma Hit” value came out at 1.
With `Cc1ccccc1OCc1nn2c(C(C)C)nnc2s1` [Compound D727-0350], the “Auto Zscore Rep 1” value is given as −0.2032, the “Auto Zscore Rep 2” value stood at 0.9814, the “Normalized Zscore Rep 1” value was 0.2025 and the “Normalized Zscore Rep 2” value turned out to be 0.2065. The “3 sigma Hit” value is given as 1 and the “5 sigma Hit” value is 1.
Regarding `CCCN1CCN(c2ccc(C(=O)O)cc2NC(=O)c2ccccc2Cl)CC1` [Compound F086-0004], the “Auto Zscore Rep 1” value was −1.483, the “Auto Zscore Rep 2” value is 1.076, the “Normalized Zscore Rep 1” value was determined as 0.2725 and the “Normalized Zscore Rep 2” value amounted to 0.2108. Besides, the “3 sigma Hit” value is 1 and the “5 sigma Hit” value was found to be 1.
For the compound `CC(C)NC(=O)CN1CCN(c2ccc(C(=O)O)cc2NC(=O)c2ccccc2Cl)CC1` [Compound F086-0028], the “Auto Zscore Rep 1” value is −0.07719, the “Auto Zscore Rep 2” value worked out at 0.5847, the “Normalized Zscore Rep 1” value is given as 0.2467 and the “Normalized Zscore Rep 2” value stood at 0.2295. The “3 sigma Hit” value amounted to 1 and the “5 sigma Hit” value is reported as 1.
For the compound `Cc1nc2ccccc2n1Cc1nnc2n1N=C(N)CS2` [Compound D727-0339], the “Auto Zscore Rep 1” value is on record as −1.123, the “Auto Zscore Rep 2” value was −1.939, the “Normalized Zscore Rep 1” value amounted to 0.1478 and the “Normalized Zscore Rep 2” value is 0.2051. The “3 sigma Hit” value was 1.
Turning to `CN(C)S(=O)(=O)Nc1cnc(N2CCC(CCN3CCCCC3)CC2)c(C(=O)O)c1` [Compound F293-0962], the “Auto Zscore Rep 1” value is on record as −1.575, the “Auto Zscore Rep 2” value is −1.36, the “Normalized Zscore Rep 1” value turned out to be 0.2533 and the “Normalized Zscore Rep 2” value is listed as 0.277. In addition, the “3 sigma Hit” value amounted to 1 and the “5 sigma Hit” value is listed as 1.
On to `CS(=O)(=O)Nc1cnc(N2CCC(C(N)=O)(N3CCCCC3)CC2)c(C(=O)O)c1` [Compound F293-0183], for which the “Auto Zscore Rep 1” value stood at 1.533, the “Auto Zscore Rep 2” value is listed as −0.4148, the “Normalized Zscore Rep 1” value stood at 0.2879 and the “Normalized Zscore Rep 2” value was 0.3283. For the same compound, the “3 sigma Hit” value is 1 and the “5 sigma Hit” value is given as 1.
Turning to `CN(C)S(=O)(=O)Nc1ccc(N2CCC(C(N)=O)(N3CCCCC3)CC2)c(C(=O)O)c1` [Compound F294-0183], the “Auto Zscore Rep 1” value is on record as −1.66, the “Auto Zscore Rep 2” value is −0.5827, the “Normalized Zscore Rep 1” value is reported as 0.1624 and the “Normalized Zscore Rep 2” value turned out to be 0.2442. The “3 sigma Hit” value was 1.
As to `CN(C)S(=O)(=O)Nc1ccc(N2CCCC(CN3CCCC3)C2)c(C(=O)O)c1` (centres unmarked) [Compound F294-0983], the “Auto Zscore Rep 1” value is listed as −0.3877, the “Auto Zscore Rep 2” value is −0.5875, the “Normalized Zscore Rep 1” value is given as 0.2894 and the “Normalized Zscore Rep 2” value is listed as 0.2577. In addition, the “3 sigma Hit” value stood at 1 and the “5 sigma Hit” value was found to be 1.
Turning to `COCCCNC(=O)CN1CCN(c2ccc(C(=O)O)cc2NC(=O)c2ccccc2Cl)CC1` [Compound F086-0033], the “Auto Zscore Rep 1” value is on record as −0.0657, the “Auto Zscore Rep 2” value is given as −0.1907, the “Normalized Zscore Rep 1” value turned out to be 0.1937 and the “Normalized Zscore Rep 2” value is listed as 0.2246. Also, the “3 sigma Hit” value was determined as 1 and the “5 sigma Hit” value stood at 1.
On to `c1ccc(Cc2nn3c(-c4cccnc4)nnc3s2)cc1` [Compound D727-0066], for which the “Auto Zscore Rep 1” value stood at 0.2456, the “Auto Zscore Rep 2” value came to 1.309, the “Normalized Zscore Rep 1” value was 0.1917 and the “Normalized Zscore Rep 2” value was found to be 0.2236. Further, the “3 sigma Hit” value is 1 and the “5 sigma Hit” value was determined as 1.
`CCN(Cc1ccccc1)c1ccc(NS(=O)(=O)c2ccc(OC)cc2)cc1C(=O)O` [Compound F294-0003]: the “Auto Zscore Rep 1” value is listed as 0.9297, the “Auto Zscore Rep 2” value is given as −1.427, the “Normalized Zscore Rep 1” value is on record as 0.2547 and the “Normalized Zscore Rep 2” value amounted to 0.2729. For the same compound, the “3 sigma Hit” value was found to be 1 and the “5 sigma Hit” value is 1.
With `NS(=O)(=O)c1ccc(CCNC(=O)C2=Cc3sc4c(c3CS2)CCCC4)cc1` [Compound E722-2588], the “Auto Zscore Rep 1” value is on record as 0.2247, the “Auto Zscore Rep 2” value is given as −0.3407, the “Normalized Zscore Rep 1” value is recorded as 0.2746 and the “Normalized Zscore Rep 2” value is 0.2871. In addition, the “3 sigma Hit” value is 1 and the “5 sigma Hit” value was found to be 1.
Turning to `Cc1ccccc1OCc1nn2c(C(C)(C)C)nnc2s1` [Compound D727-0351], the “Auto Zscore Rep 1” value is recorded as −0.02144, the “Auto Zscore Rep 2” value is reported as −0.3042, the “Normalized Zscore Rep 1” value came to 0.2896 and the “Normalized Zscore Rep 2” value stood at 0.3227. The “3 sigma Hit” value is reported as 1 and the “5 sigma Hit” value is on record as 1.
On to `Brc1ccc(OCc2nn3c(-c4ccccn4)nnc3s2)cc1` [Compound D727-0522], for which the “Auto Zscore Rep 1” value came to 1.021, the “Auto Zscore Rep 2” value came to 0.5297, the “Normalized Zscore Rep 1” value is 0.3471 and the “Normalized Zscore Rep 2” value stood at 0.3776. In addition, the “3 sigma Hit” value is recorded as 1 and the “5 sigma Hit” value is given as 1.
For the compound `Fc1ccc(OCc2nn3c(-c4ccccn4)nnc3s2)cc1` [Compound D727-0525], the “Auto Zscore Rep 1” value turned out to be 0.9393, the “Auto Zscore Rep 2” value was found to be 1.066, the “Normalized Zscore Rep 1” value was found to be 0.3566 and the “Normalized Zscore Rep 2” value came out at 0.3426. Moreover, the “3 sigma Hit” value was 1 and the “5 sigma Hit” value was determined as 1.
For `Nc1c(C(=O)N2CCCCC2)sc(=S)n1Cc1ccccc1` [Compound F128-0042], the “Auto Zscore Rep 1” value is −0.3436, the “Auto Zscore Rep 2” value worked out at 0.3038, the “Normalized Zscore Rep 1” value is 0.2801 and the “Normalized Zscore Rep 2” value came to 0.2612. Further, the “3 sigma Hit” value was 1 and the “5 sigma Hit” value worked out at 1.
`Nc1c(C(=O)N2CCCC2)sc(=S)n1Cc1ccccc1` [Compound F128-0041]: the “Auto Zscore Rep 1” value is reported as 1.188, the “Auto Zscore Rep 2” value is reported as −1.115, the “Normalized Zscore Rep 1” value turned out to be 0.3576 and the “Normalized Zscore Rep 2” value is given as 0.3845. Further, the “3 sigma Hit” value was determined as 1 and the “5 sigma Hit” value stood at 1.
In the case of `NC(=O)c1sc(=S)n2c1[nH]c(=O)c1ccc(Cl)cc12` [Compound F083-0067], the “Auto Zscore Rep 1” value is −0.5214, the “Auto Zscore Rep 2” value stood at 0.84, the “Normalized Zscore Rep 1” value came out at 0.2245 and the “Normalized Zscore Rep 2” value amounted to 0.2068. In addition, the “3 sigma Hit” value is on record as 1 and the “5 sigma Hit” value is listed as 1.
Consider `CN(C)S(=O)(=O)Nc1ccc(N2CCC(CCN3CCOCC3)CC2)c(C(=O)O)c1` [Compound F294-0900], for which the “Auto Zscore Rep 1” value is given as −2.121, the “Auto Zscore Rep 2” value amounted to 0.2518, the “Normalized Zscore Rep 1” value was 0.2307 and the “Normalized Zscore Rep 2” value is reported as 0.229. Moreover, the “3 sigma Hit” value was found to be 1 and the “5 sigma Hit” value worked out at 1.
For `NC(=O)c1c(NC(=O)COCc2cc(-c3ccc4c(c3)OCO4)on2)sc2c1CCCC2` [Compound E613-0091], the “Auto Zscore Rep 1” value was −0.4678, the “Auto Zscore Rep 2” value is −1.998, the “Normalized Zscore Rep 1” value was 0.1515 and the “Normalized Zscore Rep 2” value is 0.3604. The “3 sigma Hit” value came out at 1.
In the same order, the values of `O=C(O)c1cc(NS(=O)(=O)c2cc(F)ccc2F)cnc1N1CCC(N2CCCCC2)CC1` [Compound F293-0616] are −0.1879, −0.1846, 0.1887, 0.1788 and 1.
